One series concerns HBV. To be noted: Ptak et al. 2008; read-out: IC50 against HBV; cited from earlier work.
The subject of another series is HIV-1. The note with it: Steyn et al., 2006, cited from earlier work.
The next series in a line: in vivo. The note with it: CD1 mice, p.o. 10 or 5 mg/kg vs i.v. 1 mg/kg. Here is the method: For sanglifehrins, whole blood is analysed. Compounds are formulated in 5% ethanol/5% cremophor EL/90% saline for both p.o. and i.v. administration. Groups of 3 male CD1 mice are dosed with either 1 mg/kg i.v. or 5 or 10 mg/kg p.o. Blood samples (40 μL) are taken via saphenous vein, pre-dose and at 0.25, 0.5, 2, 8, and 24 hours, and diluted with an equal amount of dH20 and put on dry ice immediately. Samples are stored at −70° C. until analysis. The concentration of the sanglifehrin or parent compound in the sample is determined via LCMS as follows: 20 μL of blood:H2O (1:1, v/v)/PK sample is added with 20 μL Internal standard (hydroxyl macrocycle, 6) at 100 ng/mL, 20 μL working solution/MeOH and 150 μL of ACN, vortexed for 1 minute at 1500 rpm, and centrifuged at 12000 rpm for 5 min. The supernatant is then injected into LC-MS/MS. The time-course of blood concentrations is plotted and used to derive area under the whole blood concentration-time curve (AUC—which is directly proportional to the total amount of unchanged drug that reaches the systemic circulation). These values are used to generate PK parameters where possible.
To assess the pharmacokinetics of the compounds in an in vivo setting, compounds were dosed po at 10 or 5 mg/kg and iv at 1 mg/kg to groups of CD1 mice.
Pharmacokinetic analysis was carried out as described in the general methods.

Series [1] can be described thus: In vitro stability in acidic and neutral conditions (SGF, SGF + pepsin, SGF + denatured pepsin, PBS). The note with it: 1 hour. As to the method: 1 mM DMSO solutions were made of compounds to be tested and mixed on vibrax to ensure compound was fully dissolved.
PBS Solution: 2 tablets of Phosphate Buffered Saline (Dulbecco A) tablets (Oxoid, BR0014G) were added to 200 mL distilled water and stirred to mix. pH was measured at 7.28.
Simulated Gut Fluid (SGF): 300 uL conc. HCl added to 50 mL distilled water and mixed. pH was measured at 1.21.
Simulated gut fluid+pepsin: 300 uL conc. HCl and 1 g of Pepsin (from Porcine gastric mucosa, Sigma) were added to 50 mL distilled water and mixed by stirring for 1 hr.
SGF+denatured pepsin: 900 uL of Acidic Enzyme Solution taken into a 2 mL eppendorf tube and heated at 99° C. in a water bath for 30 mins.
Acidic Enzyme and Acidic Denatured Enzyme solutions were made fresh each day, whereas PBS and Acid Solutions were stored at 4° C. when not in use.
Eppendorfs containing 900 uL of test solutions were pre-warmed in a 37° C. water bath. At t=0, 100 uL of test compound (1 mM DMSO solution) was added to test solution and mixed. 100 uL was taken immediately and mixed into 900 uL acetonitrile in an amber glass LC vial. 50-100 uL of the sample was analysed by HPLC, integrating the compounds' UV peaks to determine degradation over time. Sanglifehrin A was measured at its λmax of 240 nm; 33, 45 and 24 were measured at their λmax of 276 nm.
Further samples were taken in the same manner for analysis at approximately t=0.33, 0.67, 1.0, 2.67, and 4.67 hr. A final analysis was run at t=>30 to confirm end point of reaction.
Controls of test compound DMSO solutions in 900 uL DMSO were also prepared and treated in the same manner, with samples analysed at t=0, t=8 and t=>30 hr. Half lives were calculated from the data generated.
Stability of compounds was analysed in simulated gastric fluid, pH1.2 (SGF) and phosphate buffered saline, pH7.3 (PBS).

Another series concerns the target cyclophilin A (CypA) (Homo sapiens, UniProt P62937). The note with it: relative to CsA; cited from earlier work.
In the next series the test system is calcineurin. To be noted: in words; Zenke et al. 2001; cited from earlier work.

SMILES strings stand for the structures. Where two headings read alike, the source gives them in different places. Bounds are passed on as bounds.

The IC50 is the concentration that gives 50% inhibition.

cyclophilin A (CypA), sequence (P62937 whole entry): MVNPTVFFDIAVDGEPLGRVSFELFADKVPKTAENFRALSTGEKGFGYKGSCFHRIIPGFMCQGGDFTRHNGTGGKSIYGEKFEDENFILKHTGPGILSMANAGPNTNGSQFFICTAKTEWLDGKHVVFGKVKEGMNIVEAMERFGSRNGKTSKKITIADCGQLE

Consider `C/C=C/C[C@@H](C)[C@@H](O)[C@H]1C(=O)N[C@@H](CC)C(=O)N(C)[C@H](C)C(=O)N(CC)[C@@H](C(C)C)C(=O)N[C@@H](C(C)C)C(=O)N(C)[C@@H](CC(C)C)C(=O)N[C@@H](C)C(=O)N[C@H](C)C(=O)N(C)[C@@H](CC(C)C)C(=O)N(C)[C@@H](CC(C)C)C(=O)N(C)[C@@H](C(C)C)C(=O)N1C` [DEBIO-025], for which the IC50 in the series on HBV is 4.1 µM. Besides, the “reduction of HIV-1 RNA levels” value is reported as no less than 0.5 log 10 copies/mL with HIV-1 (in nine patients) and greater than 1 log 10 copies/mL in the series with HIV-1 (in two patients).
As for `CC[C@H]1C[C@H](C)[C@@]2(NC1=O)O[C@@H](C[C@H](O)[C@@H](C)CC/C=C/C=C(\C)[C@@H]1C/C=C/C=C/[C@H](O)[C@H](C)[C@@H](O)[C@@H](CCC(C)=O)C(=O)N[C@@H](C(C)C)C(=O)N[C@@H](Cc3cccc(O)c3)C(=O)N3CCC[C@H](N3)C(=O)O1)[C@H](C)[C@H](O)[C@@H]2C` [Sanglifehrin A, 5, Sanglifehrin A, reference compound], in “in vivo”, the “Oral bioavailability F %” value is recorded as 1.4%. Besides, in series [1] (SGF + denatured pepsin, 37° C.), the “SGF + denatured pepsin, % remaining after 1 hour” value was 49%. The “SGF + Pepsin, % remaining after 1 hour” value in series [1] (SGF + pepsin, 37° C.) is recorded as 41%. In addition, the “PBS % remaining after 1 hour” value in series [1] (phosphate buffered saline pH 7.3, 37° C.) is recorded as 76%. The “SGF % remaining after 1 hour” value in series [1] (simulated gastric fluid pH 1.2, 37° C.) was 52%. Besides, the “affinity for CyPA compared to Cyclosporine A (fold higher)” value at cyclophilin A (CypA) is recorded as “approximately 20 fold”. The “inhibition of the phosphatase activity of calcineurin” value in the series on calcineurin is reported as “does not inhibit”.

The record behind these values is patent publication US9504728B2, “Dosage form” (priority 2011, dated 2016).
